Measured values from ChEMBL document CHEMBL2390919, “Investigation of the role of linker moieties in bifunctional tacrine hybrids” (Bioorg Med Chem, 2013).
pIC50: −log10 of the molar value. Calls of active or inactive are those of the source. The rule behind the calls is not given here.

How the values were obtained:
Acetylcholinesterase [1] = target: T1, Acetylcholinesterase (Electrophorus electricus, UniProt O42275)
Description: Inhibition of electric eel AChE preincubated for 30 mins prior to horseradish peroxidase, H2O2 and DETAPAC addition measured for 20 mins under ROS condition by Muraoka and Miura method

Acetylcholinesterase [2] = target: T1, Acetylcholinesterase; remark: listed apart in the source
Description: Inhibition of electric eel AChE using acetylthiocholine as substrate preincubated for 10 mins prior to substrate addition measured every 30 seconds for 30 mins by Ellman's method

[3] = target: Acetylcholinesterase (Electrophorus electricus) (UniProt O42275); assay: Non competitive inhibition of electric eel AChE using acetylthiocholine as substrate by Lineweaver-Burk plot analysis
Sequence of Acetylcholinesterase (Electrophorus electricus) (O42275 24-633 limits assumed): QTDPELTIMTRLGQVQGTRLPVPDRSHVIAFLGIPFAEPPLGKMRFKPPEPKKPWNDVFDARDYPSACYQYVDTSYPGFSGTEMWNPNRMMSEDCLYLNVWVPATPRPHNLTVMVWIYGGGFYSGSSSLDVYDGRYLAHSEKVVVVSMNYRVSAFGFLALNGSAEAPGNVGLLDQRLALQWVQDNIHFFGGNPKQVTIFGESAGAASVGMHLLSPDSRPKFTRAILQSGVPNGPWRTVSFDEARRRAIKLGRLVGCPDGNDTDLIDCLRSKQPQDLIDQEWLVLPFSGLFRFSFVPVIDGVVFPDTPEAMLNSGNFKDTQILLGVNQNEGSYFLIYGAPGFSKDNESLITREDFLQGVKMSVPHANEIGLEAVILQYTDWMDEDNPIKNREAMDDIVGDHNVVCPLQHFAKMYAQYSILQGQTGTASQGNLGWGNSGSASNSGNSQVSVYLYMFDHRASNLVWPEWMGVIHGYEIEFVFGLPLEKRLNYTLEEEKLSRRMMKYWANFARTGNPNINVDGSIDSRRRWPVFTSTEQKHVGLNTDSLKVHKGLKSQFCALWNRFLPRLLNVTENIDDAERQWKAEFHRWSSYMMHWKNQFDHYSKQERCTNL

[4] = target: Acetylcholinesterase (Electrophorus electricus) (UniProt O42275); assay: Ratio of tacrine IC50 to compound IC50 for electric eel AChE
[5] = target: Acetylcholinesterase (Electrophorus electricus) (UniProt O42275); assay: Ratio of tacrine IC50 to compound IC50 for electric eel AChE in presence of horseradish peroxidase and H2O2 and DETAPAC

T1 sequence (O42275 whole entry): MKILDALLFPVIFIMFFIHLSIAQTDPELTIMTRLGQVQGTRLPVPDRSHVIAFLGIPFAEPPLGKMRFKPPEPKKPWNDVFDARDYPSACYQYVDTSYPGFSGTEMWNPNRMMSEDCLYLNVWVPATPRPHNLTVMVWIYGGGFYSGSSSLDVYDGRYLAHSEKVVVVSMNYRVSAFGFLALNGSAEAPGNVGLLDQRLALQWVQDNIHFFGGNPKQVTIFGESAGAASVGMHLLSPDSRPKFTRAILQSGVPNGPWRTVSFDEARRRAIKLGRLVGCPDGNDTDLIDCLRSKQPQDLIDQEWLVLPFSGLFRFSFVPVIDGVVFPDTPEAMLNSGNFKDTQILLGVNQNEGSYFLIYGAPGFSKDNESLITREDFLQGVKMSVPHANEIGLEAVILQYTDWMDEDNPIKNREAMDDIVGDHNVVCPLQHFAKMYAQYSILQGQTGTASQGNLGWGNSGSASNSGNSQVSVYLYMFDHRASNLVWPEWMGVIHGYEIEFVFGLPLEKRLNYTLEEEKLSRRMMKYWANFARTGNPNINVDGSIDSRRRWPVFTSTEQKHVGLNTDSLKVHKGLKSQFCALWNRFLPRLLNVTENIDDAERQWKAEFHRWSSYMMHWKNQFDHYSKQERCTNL

Row | Compound | pIC50 (Acetylcholinesterase [1]) | pIC50 (Acetylcholinesterase [2]) | inhibition [3] | Ratio IC50 [4] | Ratio IC50 [5]
1 | Cc1cccc(Nc2ccccc2C(=O)NCCC(=O)NCCCCCCCNc2c3c(nc4cc(Cl)ccc24)CCCC3)c1C | 8.00 | 8.18 |  |  | 
2 | OCCCCCCNc1c2c(nc3cc(Cl)ccc13)CCCC2 | 8.61 | 7.37 | Active |  | 
3 | Cc1cccc(Nc2ccccc2C(=O)NCCCC(=O)NCCCCCCCNc2c3c(nc4cc(Cl)ccc24)CCCC3)c1C | 8.18 | 8.10 |  |  | 
4 | Cc1cccc(Nc2ccccc2C(=O)NCCCC(=O)NCCCCCCNc2c3c(nc4cc(Cl)ccc24)CCCC3)c1C | 7.81 | 7.38 |  |  | 
5 | NCCCCCNc1c2c(nc3cc(Cl)ccc13)CCCC2 | 6.03 | 7.29 |  |  | 
6 | Cc1cccc(Nc2ccccc2C(=O)NCCC(=O)NCCCCCCNc2c3c(nc4cc(Cl)ccc24)CCCC3)c1C | 8.53 | 8.94 |  |  | 
7 | CCCCCCCCCCNc1c2c(nc3cc(Cl)ccc13)CCCC2 | 6.60 | 8.29 |  | 10 | 
8 | NCCCCCCCCCNc1c2c(nc3cc(Cl)ccc13)CCCC2 | 8.91 | 9.22 | Active | 50 | 30
9 | CCCCCCNc1c2c(nc3cc(Cl)ccc13)CCCC2 | 7.58 | 7.19 |  | < 5 | 
10 | Cc1cccc(Nc2ccccc2C(=O)NCCC(=O)NCCCCNc2c3c(nc4cc(Cl)ccc24)CCCC3)c1C | 7.48 | 5.61 |  |  | 
11 | Cc1cccc(Nc2ccccc2C(=O)NCCCCCCCCCCNc2c3c(nc4cc(Cl)ccc24)CCCC3)c1C | 8.73 | 9.11 |  |  | 
12 | CCCCCCCCCNc1c2c(nc3cc(Cl)ccc13)CCCC2 | 7.77 | 8.64 |  | 20 | 
13 | CCCCCCCNc1c2c(nc3cc(Cl)ccc13)CCCC2 | 8.69 | 7.80 | Active | 3 | 
14 | NCCCCNc1c2c(nc3cc(Cl)ccc13)CCCC2 | 7.18 | 7.42 |  |  | 
15 | NCCCCCCCCCCCCNc1c2c(nc3cc(Cl)ccc13)CCCC2 | 8.84 | 9.19 |  | 50 | 30
16 | Cc1cccc(Nc2ccccc2C(=O)NCCCC(=O)NCCCCNc2c3c(nc4cc(Cl)ccc24)CCCC3)c1C | 7.91 | 7.87 |  |  | 

Row | Compound | pIC50 (Acetylcholinesterase [1]) | pIC50 (Acetylcholinesterase [2]) | inhibition [3] | Ratio IC50 [4] | Ratio IC50 [5]
17 | Cc1cccc(Nc2ccccc2C(=O)NCCCCCCCCNc2c3c(nc4cc(Cl)ccc24)CCCC3)c1C | 8.83 | 9.31 |  |  | 
18 | CCCCCCCCNc1c2c(nc3cc(Cl)ccc13)CCCC2 | 8.10 | 7.71 |  | < 5 | 
19 | NCCCCCCNc1c2c(nc3cc(Cl)ccc13)CCCC2 | 8.11 | 7.95 | Active |  | 
20 | Cc1cccc(Nc2ccccc2C(=O)NCCCCCCCNc2c3c(nc4cc(Cl)ccc24)CCCC3)c1C | 7.53 | 5.86 |  |  | 
21 | Cc1cccc(Nc2ccccc2C(=O)NCCCCCC(=O)NCCCCNc2c3c(nc4cc(Cl)ccc24)CCCC3)c1C | 9.52 | 7.43 |  |  | 
22 | OCCCCCNc1c2c(nc3cc(Cl)ccc13)CCCC2 | 5.82 | 7.14 |  |  | 
23 | NCCCCCCCCCCNc1c2c(nc3cc(Cl)ccc13)CCCC2 | 8.66 | 9.03 |  | 50 | 30
24 | NCCCCCCCNc1c2c(nc3cc(Cl)ccc13)CCCC2 | 7.82 | 8.27 |  |  | 
25 | Cc1cccc(Nc2ccccc2C(=O)NCCCCCCNc2c3c(nc4cc(Cl)ccc24)CCCC3)c1C | 8.99 | 5.14 |  |  | 
26 | NCCCCCCCCNc1c2c(nc3cc(Cl)ccc13)CCCC2 | 6.53 | 8.94 |  | 50 | 
27 | Cc1cccc(Nc2ccccc2C(=O)NCCCCCC(=O)NCCCCCCCNc2c3c(nc4cc(Cl)ccc24)CCCC3)c1C | 7.87 | 7.95 |  |  | 
28 | CCCCCNc1c2c(nc3cc(Cl)ccc13)CCCC2 | 7.36 | 7.58 |  | < 5 | 
29 | Cc1cccc(Nc2ccccc2C(=O)NCCCCCCCCCNc2c3c(nc4cc(Cl)ccc24)CCCC3)c1C | 8.17 | 8.16 |  |  | 
30 | Cc1cccc(Nc2ccccc2C(=O)NCCCCCCCCCCCCNc2c3c(nc4cc(Cl)ccc24)CCCC3)c1C | 7.79 | 5.63 |  |  | 
31 | Cc1cccc(Nc2ccccc2C(=O)NCCCCCC(=O)NCCCCCCNc2c3c(nc4cc(Cl)ccc24)CCCC3)c1C | 8.13 | 8.53 |  |  | 
